This is an account of results in US11034725B2, “Compositions and methods for treating cardiovascular disease” (Genentech, Inc., priority 2016, dated 2021).

One assay addresses PCSK9 (Homo sapiens, UniProt Q8NBP7). Nature of the assay: PCSK9/EGF(A) TR-FRET binding assay. Conditions: TR-FRET; Table 8E, additional compounds; read-out: PCSK9/EGF(A) IC50. On the technique in general: In TR-FRET formats the signal depends on donor and acceptor labels being close together.
For a further assay, the target named is T1, PCSK9Δhelix (Homo sapiens, UniProt Q8NBP7).
T1 construct: Human PCSK9 construct M1-Q692 with an engineered TEV site (residue deletion Y166, R167); made in house; host or cells: CHO
Nature of the assay: PCSK9Δhelix/Ab20 TR-FRET binding assay. The following applies: TR-FRET; Table 8E, additional compounds; read-out: PCSK9Δhelix/Ab20 IC50.

Numbered stars: 1 amine (or outer) side, 2 acyl side, 3 side chain; on linkers, the order of the positions; unused ones are H or OH. Peptide text beside a SMILES is read from it. * marks the point of attachment. Propanoyl(3-(4-MeO-Ph)) = COc1ccc(CCC(=O)*)cc1; Propanoyl(3-(3-pyridyl)) = O=C(CCc1cccnc1)*; X43 = CS(=O)(=O)c1ccc(C(=O)CCC(=O)*)cc1; Desaminotyrosyl = O=C(CCc1ccc(O)cc1)*; Propanoyl(3-cHex) = O=C(CCC1CCCCC1)*; X20 = O=C(c1cc(-c2ccncc2)n[nH]1)*; X45 = CC(=O)c1ccc(OCCCC(=O)*)cc1; X37 = Cc1ccc(C(=O)CCC(=O)*)cc1; X39 = O=C(C1CCC(c2ccccc2)CC1)*; X22 = O=C(C1CC(Cc2ccccc2)C1)*; X8 = O=C(c1ccc(N2CCOCC2)nc1)*; Suc = O=C(CCC(=O)[*:2])[*:1]; X11 = O=C(CCCOc1ccc(Br)cc1)*; X10 = Nc1cccc(CCC(=O)*)c1; X29 = Nc1ccc(CCC(=O)*)cc1; X30 = O=C(CCc1cccc(O)c1)*; X35 = Nc1ccc(CCC(=O)*)cn1; Morpholide = C1CN(*)CCO1; X27 = O=C(CCCN1CCOCC1)*; Cbz = O=C(OCc1ccccc1)*; Pentanoyl = CCCCC(=O)*; GABA = NCCCC(=O)O

Sequence of PCSK9 (Q8NBP7 153-692): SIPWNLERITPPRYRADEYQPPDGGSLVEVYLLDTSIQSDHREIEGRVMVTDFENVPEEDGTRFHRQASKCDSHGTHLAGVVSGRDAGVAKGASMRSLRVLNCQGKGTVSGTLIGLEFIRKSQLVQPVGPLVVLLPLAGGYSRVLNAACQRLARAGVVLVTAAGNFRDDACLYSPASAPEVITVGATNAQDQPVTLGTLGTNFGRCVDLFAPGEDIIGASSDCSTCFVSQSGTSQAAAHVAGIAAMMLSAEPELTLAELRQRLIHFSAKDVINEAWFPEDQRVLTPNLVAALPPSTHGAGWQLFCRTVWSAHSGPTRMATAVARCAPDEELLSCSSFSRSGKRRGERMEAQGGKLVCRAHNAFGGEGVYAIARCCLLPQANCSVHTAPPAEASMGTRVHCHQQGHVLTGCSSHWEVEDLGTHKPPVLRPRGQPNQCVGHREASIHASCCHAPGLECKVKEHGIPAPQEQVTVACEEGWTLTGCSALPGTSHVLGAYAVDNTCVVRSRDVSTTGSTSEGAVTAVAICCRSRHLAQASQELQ
Sequence of PCSK9 (Q8NBP7 31-152 partner limits assumed): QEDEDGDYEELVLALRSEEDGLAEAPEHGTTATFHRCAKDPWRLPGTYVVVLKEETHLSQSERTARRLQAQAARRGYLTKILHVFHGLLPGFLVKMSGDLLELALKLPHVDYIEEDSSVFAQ
T1 sequence (Q8NBP7 with tags, fused parts or gaps limits assumed): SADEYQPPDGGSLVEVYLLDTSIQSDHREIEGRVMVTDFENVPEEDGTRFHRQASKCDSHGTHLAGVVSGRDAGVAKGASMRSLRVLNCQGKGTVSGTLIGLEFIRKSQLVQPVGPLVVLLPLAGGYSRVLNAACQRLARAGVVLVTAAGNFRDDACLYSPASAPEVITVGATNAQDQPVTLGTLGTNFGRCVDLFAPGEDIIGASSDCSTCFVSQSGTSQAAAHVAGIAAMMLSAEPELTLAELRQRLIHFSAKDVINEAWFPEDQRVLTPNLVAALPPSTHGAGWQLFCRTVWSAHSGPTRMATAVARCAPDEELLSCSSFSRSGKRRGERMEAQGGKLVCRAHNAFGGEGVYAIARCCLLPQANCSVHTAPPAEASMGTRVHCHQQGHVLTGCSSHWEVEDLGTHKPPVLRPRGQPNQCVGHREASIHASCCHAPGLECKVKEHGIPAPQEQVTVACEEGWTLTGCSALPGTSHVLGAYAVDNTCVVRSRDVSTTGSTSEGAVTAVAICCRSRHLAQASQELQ
T1 sequence (Q8NBP7 31-152 partner limits assumed): as the sequence (Q8NBP7 31-152 partner limits assumed) above

As for `CC[C@H](C)[C@H](NC(=O)[C@H](CCCNC(=N)N)NC(=O)[C@@H](NC(=O)[C@H](CC(C)C)NC(=O)[C@H](CC(N)=O)NC(=O)[C@H](Cc1c[nH]c2ccccc12)NC(=O)CCC1CCCCC1)C(C)C)C(=O)NCC(=O)N[C@@H](CC(C)C)C(=O)N[C@@H](CC(C)C)C(=O)N[C@@H](CCCNC(=N)N)C(N)=O` [Compound 151] ({Propanoyl(3-cHex)}-WNLVRIGLLR-NH2), the IC50 on PCSK9 was determined as 6.9 µM; on PCSK9Δhelix, 2.5 µM.
For the molecule `CC[C@H](C)[C@H](NC(=O)[C@H](CCCNC(=N)N)NC(=O)[C@@H](NC(=O)[C@H](CC(C)C)NC(=O)[C@H](CC(N)=O)NC(=O)[C@H](Cc1c[nH]c2ccccc12)NC(=O)CCc1ccc(N)cc1)C(C)C)C(=O)NCC(=O)N[C@@H](CC(C)C)C(=O)N[C@H](C(=O)N[C@@H](CCCNC(=N)N)C(N)=O)[C@@H](C)O` [Compound 161] (X29-WNLVRIGLTR-NH2), the figures for the IC50 at PCSK9 and on PCSK9Δhelix were not below 50 µM and 5 µM, respectively.
In the same order, the values of `CC[C@H](C)[C@H](NC(=O)[C@H](CCCNC(=N)N)NC(=O)[C@@H](NC(=O)[C@H](CC(C)C)NC(=O)[C@H](CC(N)=O)NC(=O)[C@H](Cc1c[nH]c2ccccc12)NC(=O)CCCN1CCOCC1)C(C)C)C(=O)NCC(=O)N[C@@H](CC(C)C)C(=O)N[C@H](C(=O)N[C@@H](CCCNC(=N)N)C(N)=O)[C@@H](C)O` [Compound 162] (X27-WNLVRIGLTR-NH2) are not below 50 µM and 37 µM.
In the same order, the values of `CC[C@H](C)[C@H](NC(=O)[C@H](CCCNC(=N)N)NC(=O)[C@@H](NC(=O)[C@H](CC(C)C)NC(=O)[C@H](CC(N)=O)NC(=O)[C@H](Cc1c[nH]c2ccccc12)NC(=O)CCC(=O)c1ccc(S(C)(=O)=O)cc1)C(C)C)C(=O)NCC(=O)N[C@@H](CC(C)C)C(=O)N[C@H](C(=O)N[C@@H](CCCNC(=N)N)C(N)=O)[C@@H](C)O` [Compound 163] (X43-WNLVRIGLTR-NH2) are not below 50 µM and 37 µM.
`CC[C@H](C)[C@H](NC(=O)[C@H](CCCNC(=N)N)NC(=O)[C@@H](NC(=O)[C@H](CC(C)C)NC(=O)[C@H](CC(N)=O)NC(=O)[C@H](Cc1c[nH]c2ccccc12)NC(=O)CCc1cccc(N)c1)C(C)C)C(=O)NCC(=O)N[C@@H](CC(C)C)C(=O)N[C@H](C(=O)N[C@@H](CCCNC(=N)N)C(N)=O)[C@@H](C)O` [Compound 164] (X10-WNLVRIGLTR-NH2): the IC50 was not below 50 µM at PCSK9 and 12 µM on PCSK9Δhelix.
On the same counts, the results for `CC[C@H](C)[C@H](NC(=O)[C@H](CCCNC(=N)N)NC(=O)[C@@H](NC(=O)[C@H](CC(C)C)NC(=O)[C@H](CC(N)=O)NC(=O)[C@H](Cc1c[nH]c2ccccc12)NC(=O)CCC(=O)c1ccc(C)cc1)C(C)C)C(=O)NCC(=O)N[C@@H](CC(C)C)C(=O)N[C@H](C(=O)N[C@@H](CCCNC(=N)N)C(N)=O)[C@@H](C)O` [Compound 165] (X37-WNLVRIGLTR-NH2) are not below 50 µM and 18 µM.
`CC[C@H](C)[C@H](NC(=O)[C@H](CCCNC(=N)N)NC(=O)[C@@H](NC(=O)[C@H](CC(C)C)NC(=O)[C@H](CC(N)=O)NC(=O)[C@H](Cc1c[nH]c2ccccc12)NC(=O)CCc1ccc(OC)cc1)C(C)C)C(=O)NCC(=O)N[C@@H](CC(C)C)C(=O)N[C@H](C(=O)N[C@@H](CCCNC(=N)N)C(N)=O)[C@@H](C)O` [Compound 166] ({Propanoyl(3-(4-MeO-Ph))}-WNLVRIGLTR-NH2): the IC50 is not below 50 µM at PCSK9 and 5.9 µM on PCSK9Δhelix.
Turning to `CC[C@H](C)[C@H](NC(=O)[C@H](CCCNC(=N)N)NC(=O)[C@@H](NC(=O)[C@H](CC(C)C)NC(=O)[C@H](CC(N)=O)NC(=O)[C@H](Cc1c[nH]c2ccccc12)NC(=O)CCC(=O)N1CCOCC1)C(C)C)C(=O)NCC(=O)N[C@@H](CC(C)C)C(=O)N[C@H](C(=O)N[C@@H](CCCNC(=N)N)C(N)=O)[C@@H](C)O` [Compound 167] ({Morpholide-Suc}-WNLVRIGLTR-NH2), the IC50 on PCSK9 is not below 50 µM; on PCSK9Δhelix, 43 µM.
On the same counts, the results for `CC[C@H](C)[C@H](NC(=O)[C@H](CCCNC(=N)N)NC(=O)[C@@H](NC(=O)[C@H](CC(C)C)NC(=O)[C@H](CC(N)=O)NC(=O)[C@H](Cc1c[nH]c2ccccc12)NC(=O)CCc1cccc(O)c1)C(C)C)C(=O)NCC(=O)N[C@@H](CC(C)C)C(=O)N[C@H](C(=O)N[C@@H](CCCNC(=N)N)C(N)=O)[C@@H](C)O` [Compound 168] (X30-WNLVRIGLTR-NH2) are not below 50 µM and 7.8 µM.
In the same order, the values of `CC[C@H](C)[C@H](NC(=O)[C@H](CCCNC(=N)N)NC(=O)[C@@H](NC(=O)[C@H](CC(C)C)NC(=O)[C@H](CC(N)=O)NC(=O)[C@H](Cc1c[nH]c2ccccc12)NC(=O)CCCNC(=O)OCc1ccccc1)C(C)C)C(=O)NCC(=O)N[C@@H](CC(C)C)C(=O)N[C@H](C(=O)N[C@@H](CCCNC(=N)N)C(N)=O)[C@@H](C)O` [Compound 169] ({Cbz-GABA}-WNLVRIGLTR-NH2) are not below 50 µM and 6.8 µM.
On the same counts, the results for `CC[C@H](C)[C@H](NC(=O)[C@H](CCCNC(=N)N)NC(=O)[C@@H](NC(=O)[C@H](CC(C)C)NC(=O)[C@H](CC(N)=O)NC(=O)[C@H](Cc1c[nH]c2ccccc12)NC(=O)CCc1ccc(O)cc1)C(C)C)C(=O)NCC(=O)N[C@@H](CC(C)C)C(=O)N[C@H](C(=O)N[C@@H](CCCNC(=N)N)C(N)=O)[C@@H](C)O` [Compound 170] (Desaminotyrosyl-WNLVRIGLTR-NH2) are not below 50 µM and 3.1 µM.
Regarding `CC[C@H](C)[C@H](NC(=O)[C@H](CCCNC(=N)N)NC(=O)[C@@H](NC(=O)[C@H](CC(C)C)NC(=O)[C@H](CC(N)=O)NC(=O)[C@H](Cc1c[nH]c2ccccc12)NC(=O)CCc1ccc(N)nc1)C(C)C)C(=O)NCC(=O)N[C@@H](CC(C)C)C(=O)N[C@H](C(=O)N[C@@H](CCCNC(=N)N)C(N)=O)[C@@H](C)O` [Compound 171] (X35-WNLVRIGLTR-NH2), the IC50 at PCSK9 was not below 50 µM; at PCSK9Δhelix, 7.7 µM.
On the same counts, the results for `CC[C@H](C)[C@H](NC(=O)[C@H](CCCNC(=N)N)NC(=O)[C@@H](NC(=O)[C@H](CC(C)C)NC(=O)[C@H](CC(N)=O)NC(=O)[C@H](Cc1c[nH]c2ccccc12)NC(=O)c1ccc(N2CCOCC2)nc1)C(C)C)C(=O)NCC(=O)N[C@@H](CC(C)C)C(=O)N[C@H](C(=O)N[C@@H](CCCNC(=N)N)C(N)=O)[C@@H](C)O` [Compound 172] (X8-WNLVRIGLTR-NH2) are not below 50 µM and 8.5 µM.
In the same order, the values of `CC[C@H](C)[C@H](NC(=O)[C@H](CCCNC(=N)N)NC(=O)[C@@H](NC(=O)[C@H](CC(C)C)NC(=O)[C@H](CC(N)=O)NC(=O)[C@H](Cc1c[nH]c2ccccc12)NC(=O)CCc1cccnc1)C(C)C)C(=O)NCC(=O)N[C@@H](CC(C)C)C(=O)N[C@H](C(=O)N[C@@H](CCCNC(=N)N)C(N)=O)[C@@H](C)O` [Compound 173] ({Propanoyl(3-(3-pyridyl))}-WNLVRIGLTR-NH2) are not below 50 µM and 9.8 µM.
On the same counts, the results for `CCCCC(=O)N[C@@H](Cc1c[nH]c2ccccc12)C(=O)N[C@@H](CC(N)=O)C(=O)N[C@@H](CC(C)C)C(=O)N[C@H](C(=O)N[C@@H](CCCNC(=N)N)C(=O)N[C@H](C(=O)NCC(=O)N[C@@H](CC(C)C)C(=O)N[C@@H](CO)C(=O)N[C@@H](CCCNC(=N)N)C(N)=O)[C@@H](C)CC)C(C)C` [Compound 181] (Pentanoyl-WNLVRIGLSR-NH2) are not below 50 µM and 8.9 µM.
For the molecule `CC[C@H](C)[C@H](NC(=O)[C@H](CCCNC(=N)N)NC(=O)[C@@H](NC(=O)[C@H](CC(C)C)NC(=O)[C@H](CC(N)=O)NC(=O)[C@H](Cc1c[nH]c2ccccc12)NC(=O)CCCOc1ccc(Br)cc1)C(C)C)C(=O)NCC(=O)N[C@@H](CC(C)C)C(=O)N[C@H](C(=O)N[C@@H](CCCNC(=N)N)C(N)=O)[C@@H](C)O` [Compound 182] (X11-WNLVRIGLTR-NH2), the values for the IC50 on PCSK9 and on PCSK9Δhelix were 14 µM and 4 µM, respectively.
In the same order, the values of `CC[C@H](C)[C@H](NC(=O)[C@H](CCCNC(=N)N)NC(=O)[C@@H](NC(=O)[C@H](CC(C)C)NC(=O)[C@H](CC(N)=O)NC(=O)[C@H](Cc1c[nH]c2ccccc12)NC(=O)CCCOc1ccc(C(C)=O)cc1)C(C)C)C(=O)NCC(=O)N[C@@H](CC(C)C)C(=O)N[C@H](C(=O)N[C@@H](CCCNC(=N)N)C(N)=O)[C@@H](C)O` [Compound 183] (X45-WNLVRIGLTR-NH2) are 18 µM and 2.5 µM.
In the case of `CC[C@H](C)[C@H](NC(=O)[C@H](CCCNC(=N)N)NC(=O)[C@@H](NC(=O)[C@H](CC(C)C)NC(=O)[C@H](CC(N)=O)NC(=O)[C@H](Cc1c[nH]c2ccccc12)NC(=O)C1CC(Cc2ccccc2)C1)C(C)C)C(=O)NCC(=O)N[C@@H](CC(C)C)C(=O)N[C@H](C(=O)N[C@@H](CCCNC(=N)N)C(N)=O)[C@@H](C)O` (stereo partly shown) [Compound 184] (X22-WNLVRIGLTR-NH2), the values for the IC50 on PCSK9 and at PCSK9Δhelix were 19 µM and 12 µM, respectively.
On the same counts, the results for `CC[C@H](C)[C@H](NC(=O)[C@H](CCCNC(=N)N)NC(=O)[C@@H](NC(=O)[C@H](CC(C)C)NC(=O)[C@H](CC(N)=O)NC(=O)[C@H](Cc1c[nH]c2ccccc12)NC(=O)C1CCC(c2ccccc2)CC1)C(C)C)C(=O)NCC(=O)N[C@@H](CC(C)C)C(=O)N[C@H](C(=O)N[C@@H](CCCNC(=N)N)C(N)=O)[C@@H](C)O` (stereo partly shown) [Compound 185] (X39-WNLVRIGLTR-NH2) are 5.7 µM and 0.39 µM.
As for `CC[C@H](C)[C@H](NC(=O)[C@H](CCCNC(=N)N)NC(=O)[C@@H](NC(=O)[C@H](CC(C)C)NC(=O)[C@H](CC(N)=O)NC(=O)[C@H](Cc1c[nH]c2ccccc12)NC(=O)c1cc(-c2ccncc2)n[nH]1)C(C)C)C(=O)NCC(=O)N[C@@H](CC(C)C)C(=O)N[C@H](C(=O)N[C@@H](CCCNC(=N)N)C(N)=O)[C@@H](C)O` [Compound 188] (X20-WNLVRIGLTR-NH2), the IC50 on PCSK9 was found to be 22 µM; on PCSK9Δhelix, 7.6 µM.
